A short description of data set [1]: Absorption from rat duodenum: intraduodenal injection, plasma concentration by competitive enzyme immunoassay. Type of data set: in vivo. The following applies: for Cmax: peak plasma concentration by inspection. Here is the method: Female Sprague-Dawley rats (250-275 g) (n=4 for each peptide) were anesthetized with ketamine and xylazine prior to the insertion of a cannula in the carotid artery. The cannula was fitted to a three way valve through which blood was sampled and replaced with physiological saline containing heparin. A midline incision was made in the abdominal cavity, and 0.45 mL of either sCT-gly (10 mg/mL) or OmpA-MT3-sCT-gly (10 mg/mL) in 0.5M citric acid was injected directly into the duodenum. Blood (0.5 ml) was collected before and at 5, 15, 30, 45 and 60 minutes after administration of the peptides. The blood was centrifuged, and the concentration (± SEM [standard error of the mean]) of sCT-gly or OmpA-MT3-sCT-gly in the plasma supernatant was determined by a competitive enzyme immunoassay (EIA). Peak plasma concentration (Cmax) was determined by inspection. The absolute bioavailbilty of each peptide (relative to an intravenous dose of sCT [salmon calcitonin]) was calculated from plots of the plasma concentration of each peptide as a function to time.

The nature of data set [2]: Blood levels of salmon calcitonin after direct injection into duodenum, ileum or colon of rats. Type of data set: in vivo. As to conditions: rat, other: injected directly into the duodenum, active components injected directly into duodenum. From the text:
The acid is believed to lower the local intestinal pH (where the active agent has been released) to levels below the optimal range for many intestinal proteases and other intestinal enzymes. This decrease in pH reduces the proteolytic activity of the intestinal proteases, thus affording protection to the peptide and the membrane translocator from potential degradation. The activity of these proteases is diminished by the temporarily acidic environment provided by the invention. It is preferred that sufficient acid be provided that local intestinal pH is lowered temporarily to 5.5 or below, preferably 4.7 or below and more preferably 3.5 or below. The sodium bicarbonate test described below (in the section captioned “the pH-Lowering Agent”) is indicative of the required acid amount.

For data set [3] the following is noted: cited from earlier work.
Setting [4] is: 0 min (before administration), 0.45 mL of 10 mg/mL in 0.5M citric acid into duodenum, ± SEM, n=4.

Where two headings read alike, the source gives them in different places.

For orientation: Cmax means the highest concentration seen after dosing. For orientation: bioavailability means the share of a dose that reaches the circulation, judged against a reference dose that is usually intravenous. In general, Tmax refers to the time from dosing to the highest level. The term half-life denotes the time needed for the level to fall by half in the phase considered.

The molecule `CC(C)C[C@H](NC(=O)[C@H](CCCCN)NC(=O)CNC(=O)[C@H](CC(C)C)NC(=O)[C@@H](NC(=O)[C@@H]1CSSC[C@H](N)C(=O)N[C@@H](CO)C(=O)N[C@@H](CC(N)=O)C(=O)N[C@@H](CC(C)C)C(=O)N[C@@H](CO)C(=O)N[C@@H]([C@@H](C)O)C(=O)N1)C(C)C)C(=O)N[C@@H](CO)C(=O)N[C@@H](CCC(N)=O)C(=O)N[C@@H](CCC(=O)O)C(=O)N[C@@H](CC(C)C)C(=O)N[C@@H](Cc1c[nH]cn1)C(=O)N[C@@H](CCCCN)C(=O)N[C@@H](CC(C)C)C(=O)N[C@@H](CCC(N)=O)C(=O)N[C@H](C(=O)N[C@@H](Cc1ccc(O)cc1)C(=O)N1CCC[C@H]1C(=O)N[C@@H](CCCNC(=N)N)C(=O)N[C@H](C(=O)N[C@@H](CC(N)=O)C(=O)N[C@H](C(=O)NCC(=O)N[C@@H](CO)C(=O)NCC(=O)N[C@H](C(=O)N1CCC[C@H]1C(=O)NCC(=O)O)[C@@H](C)O)[C@@H](C)O)[C@@H](C)O)[C@@H](C)O` [sCT-gly, CYS-SER-ASN-LEU-SER-THR-CYS-VAL-LEU-GLY-LYS-LEU-SER-GLN-GLU-LEU-HIS-LYS-LEU-GLN-THR-TYR-PRO-ARG-THR-ASN-THR-GLY-SER-GLY-THR-PRO-GLY] displayed a plasma concentration in data set [1] (setting [4]) of 0.00 ng/mL. Besides, the Cmax in data set [1] (female, Sprague-Dawley, 4.5 mg, intraduodenal, rat, ± SEM, read-out: Cmax) worked out at 223 ± 44.8 ng/mL. Further, the bioavailability in data set [1] (female, Sprague-Dawley, plasma, other: injected directly into the duodenum (intraduodenal), 4.5 mg, relative to an intravenous dose of sCT, intraduodenal, rat, ± SEM, read-out: Absolute bioavailability) worked out at 0.92 ± 0.23%. Moreover, the level at 5 min in data set [1] (female, Sprague-Dawley, rat, plasma, 4.5 mg per animal, 5 min after intraduodenal injection, ± SEM, n=4) was found to be 201 ± 73.7 ng/mL. Also, in data set [1] (female, Sprague-Dawley, rat, plasma, 4.5 mg per animal, 15 min after intraduodenal injection, ± SEM, n=4), the level at 0.25 h was found to be 116 ± 39.1 ng/mL. Further, the level at 0.5 h in data set [1] (female, Sprague-Dawley, rat, plasma, 4.5 mg per animal, 30 min after intraduodenal injection, ± SEM, n=4) was found to be 223 ± 44.8 ng/mL. In addition, the level at 0.75 h in data set [1] (female, Sprague-Dawley, rat, plasma, 4.5 mg per animal, 45 min after intraduodenal injection, ± SEM, n=4) worked out at 151 ± 107 ng/mL. Besides, the level at 1 h in data set [1] (female, Sprague-Dawley, rat, plasma, 4.5 mg per animal, 60 min after intraduodenal injection, ± SEM, n=4) came to 179 ± 76.2 ng/mL.
With `CC(C)C[C@H](NC(=O)[C@H](CCCCN)NC(=O)CNC(=O)[C@H](CC(C)C)NC(=O)[C@@H](NC(=O)[C@@H]1CSSC[C@H](N)C(=O)N[C@@H](CO)C(=O)N[C@@H](CC(N)=O)C(=O)N[C@@H](CC(C)C)C(=O)N[C@@H](CO)C(=O)N[C@@H]([C@@H](C)O)C(=O)N1)C(C)C)C(=O)N[C@@H](CO)C(=O)N[C@@H](CCC(N)=O)C(=O)N[C@@H](CCC(=O)O)C(=O)N[C@@H](CC(C)C)C(=O)N[C@@H](Cc1c[nH]cn1)C(=O)N[C@@H](CCCCN)C(=O)N[C@@H](CC(C)C)C(=O)N[C@@H](CCC(N)=O)C(=O)N[C@H](C(=O)N[C@@H](Cc1ccc(O)cc1)C(=O)N1CCC[C@H]1C(=O)N[C@@H](CCCNC(=N)N)C(=O)N[C@H](C(=O)N[C@@H](CC(N)=O)C(=O)N[C@H](C(=O)NCC(=O)N[C@@H](CO)C(=O)NCC(=O)N[C@H](C(=O)N1CCC[C@H]1C(N)=O)[C@@H](C)O)[C@@H](C)O)[C@@H](C)O)[C@@H](C)O` [salmon calcitonin], the Tmax in data set [2] was in the range of 5 to 15 min. The “blood levels more than two hours after injection” value in data set [3] (conventional dosages) is reported as “no detectable blood levels”. The “peak level at which some patients report gastrointestinal distress” value in data set [3] (patients) was ≥ 200 picograms per milliliter. Also, the half-life in data set [3] (subcutaneous administration in man) was 20 to 40 min. For the same molecule, the peak serum concentration result in data set [3] (subcutaneous, 100 International units) is reported as “about 250 picograms per milliliter”.

B1: OmpA-MT3-sCT-gly: salmon calcitonin-Gly fused to two MTs, the unprocessed OmpA signal peptide and MTS3 (HIV TAT domain), with TRP-VAL-ALA cleavable sequence (protein)
chain: MKKTAIAIAVALAGFATVAQAYGRKKRRQRRRWVACSNLSTCVLGKLSQELHKLQTYPRTNTGSGTPG
modifications: ends and bridges not checked
Take B1: the plasma concentration was determined as 0.00 ng/mL in data set [1] (setting [4]); 563.07 ± 150.44 ng/mL in data set [1] (5 min after intraduodenal injection, ± SEM, n=4); 1861.86 ± 713.20 ng/mL in data set [1] (15 min after intraduodenal injection, ± SEM, n=4); 5603.76 ± 1749.75 ng/mL in data set [1] (30 min after intraduodenal injection, ± SEM, n=4); 3879.76 ± 713.62 ng/mL in data set [1] (45 min after intraduodenal injection, ± SEM, n=4); 6060.70 ± 2462.69 ng/mL in data set [1] (60 min after intraduodenal injection, ± SEM, n=4). In addition, the “Cmax relative to that of sCT-gly” value in data set [1] (intraduodenal, rat) is given as “more than 25 fold”. The same molecule showed a Cmax in data set [1] (intraduodenal, rat, ± SEM) of 6060.70 ± 2462.69 ng/mL. Further, the Absolute bioavailability in data set [1] (relative to an intravenous dose of sCT, intraduodenal, rat, ± SEM) is 21.26 ± 6.23%.

These data come from patent US6673574B2, “Oral delivery of peptides using enzyme-cleavable membrane translocators” (Unigene Laboratories Inc., priority 2000, dated 2004).
